From US11840551B2, “Compositions and methods of modulating the immune response by activating alpha protein kinase 1” (Shanghai Yao Yuan Biotechnology Co., Ltd., priority 2017, dated 2023) come the findings set out here.

For data set [1], the system named is CT26 cells. Put plainly: CT26 tumor xenograft model, tumor growth (tumor volume). As to conditions: Example 18, FIG. 30; 50 nmol, injections at days 7, 9, 11. It counts as in vivo, BALB/c mice. As for the experimental part:
We used a CT26 tumor xenograft model to test the anti-cancer activity of H1b-ADP. Tumor cells (2×10^5 per 100 uL CT26 cells) were inoculated subcutaneously into the right flank of BALB/c mice. At day 6, mice whose tumors had reached 3-5 mm in diameter were randomized and grouped into three groups (n=8 each group), control, HMP-1bP (580 ug), and H1b-ADP (1.2 ug). Injections were performed using a total volume of 20 uL at days 6, 8, 10, 12, and 14 post inoculation. Tumor volumes were calculated every 2 days from caliper measurements of tumor dimension using the formula (L×W^2)/2, where L is the longer measurement.
To test whether H1b-ADP could augment an anti-tumor response by a checkpoint inhibitor, we tested the effects of co-administration with an anti-PD1 antibody. Tumor cells (2×10^5 per 100 μL CT26 cells) were inoculated subcutaneously into the left and right flanks of BALB/c mice. At day 7, mice whose tumors had reached 5 mm in diameter were randomized and grouped (n=8 each group) into the following four groups: anti-PD1 antibody; rat IgG; H1b-ADP+rat IgG; H1b-ADP+anti-PD1 antibody. We utilized RMP1-14 as the anti-PD1 antibody (10 mg/kg) and a rat IgG 2a (2A3) as the control IgG. Each of the anti-PD-1 antibody and the control IgG was administered intraperitoneally in a 200 μL volume on days 6, 10, 12, and 17 post-inoculation. H1b-ADP (6.2 μg) was intratumorally injected in a 20 μL volume at day 6, 8, 10, 12, and 15. Tumor volumes were calculated every 2 days from caliper measurements of tumor dimensions using the formula (L×W^2)/2, where L is the longer measurement. The results are shown in FIG. 13A for injected tumors and FIG. 13B for distant tumors. […]
The experiment was carried out as combo experiments of anti-PD1 except for the following variations. At day 6, mice whose tumors had reached 5 mm in diameter were randomized and grouped into the following four groups: anti-CTLA-4 antibody; rat IgG; H1b-ADP+rat IgG; H1b-ADP+anti-CTLA-4 antibody. We utilized 9D9 (BioxCell) as the anti-CTLA-4 antibody and a rat IgG 2b isotype (MPC-11 clone, BE0086, BioXCell) as the control IgG. Each of the anti-CTLA-4 antibody (25 μg) and the control IgG (25 μg) was administered intraperitoneally in a 200 μL volume on days 6 and 9 post-inoculation. H1b-ADP (6.2 μg) was administered intratumorally in a 20 μL volume on days 6, 7, 9, 11 post-inoculation.
The experiment was carried out as combo experiments of anti-PD1 except for the following variations. At day 6, mice whose tumors had reached 5 mm in diameter were randomized and grouped into the following four groups: c-di-AM(PS)2; PBS; H1b-ADP; H1b-ADP+c-di-AM(PS)2. We utilized c-di-AM(PS)2 as the STING agonist. […]

Data set [2] has as its system Cxcl1, Cxcl11, IL1b, and IL6 in mouse liver and lung tissue. Put plainly: Tissue expression of chemokines and cytokines after subcutaneous injection (qPCR). Format: in vivo, C57 mice. As to conditions: subcutaneous, 2, 10, 50, 200 nmol tested, tissue harvested three hours later. On the procedure: In additional experiments, Compound 1 was injected subcutaneously into 7 week old C57 mice at concentrations of 2, 10, 50, and 200 nmol. Tissue was harvested three hours later and RNA extracted. Quantitative PCR (qPCR) was performed to determine the tissue expression levels Cxcl1, Cxcl11, IL1b, and IL6 in mouse liver (FIG. 32A) and lung (FIG. 32B) tissue. Additional chemokines and cytokines were assayed in the lung tissue.
For orientation: In qPCR the cycle at which signal appears reflects the starting amount.

For data set [3], the target named is T1, ALPK1 (Homo sapiens, UniProt Q96QP1). Description: IL8 secretion in HEK293 cells (IL8 ELISA) as indicator of ALPK1 activation. As to conditions: for IL8 secretion in HEK293 cells: without FBS, serial dilutions, 4 hours; for restoration of H1b-ADP's activity in the cell based assay (IL8 secretion): added to the FBS-containing medium, HEK293 cells. (In general: In an ELISA, binding on a coated surface is turned into a signal by an enzyme label.)
T1 sequence (Q96QP1 whole entry): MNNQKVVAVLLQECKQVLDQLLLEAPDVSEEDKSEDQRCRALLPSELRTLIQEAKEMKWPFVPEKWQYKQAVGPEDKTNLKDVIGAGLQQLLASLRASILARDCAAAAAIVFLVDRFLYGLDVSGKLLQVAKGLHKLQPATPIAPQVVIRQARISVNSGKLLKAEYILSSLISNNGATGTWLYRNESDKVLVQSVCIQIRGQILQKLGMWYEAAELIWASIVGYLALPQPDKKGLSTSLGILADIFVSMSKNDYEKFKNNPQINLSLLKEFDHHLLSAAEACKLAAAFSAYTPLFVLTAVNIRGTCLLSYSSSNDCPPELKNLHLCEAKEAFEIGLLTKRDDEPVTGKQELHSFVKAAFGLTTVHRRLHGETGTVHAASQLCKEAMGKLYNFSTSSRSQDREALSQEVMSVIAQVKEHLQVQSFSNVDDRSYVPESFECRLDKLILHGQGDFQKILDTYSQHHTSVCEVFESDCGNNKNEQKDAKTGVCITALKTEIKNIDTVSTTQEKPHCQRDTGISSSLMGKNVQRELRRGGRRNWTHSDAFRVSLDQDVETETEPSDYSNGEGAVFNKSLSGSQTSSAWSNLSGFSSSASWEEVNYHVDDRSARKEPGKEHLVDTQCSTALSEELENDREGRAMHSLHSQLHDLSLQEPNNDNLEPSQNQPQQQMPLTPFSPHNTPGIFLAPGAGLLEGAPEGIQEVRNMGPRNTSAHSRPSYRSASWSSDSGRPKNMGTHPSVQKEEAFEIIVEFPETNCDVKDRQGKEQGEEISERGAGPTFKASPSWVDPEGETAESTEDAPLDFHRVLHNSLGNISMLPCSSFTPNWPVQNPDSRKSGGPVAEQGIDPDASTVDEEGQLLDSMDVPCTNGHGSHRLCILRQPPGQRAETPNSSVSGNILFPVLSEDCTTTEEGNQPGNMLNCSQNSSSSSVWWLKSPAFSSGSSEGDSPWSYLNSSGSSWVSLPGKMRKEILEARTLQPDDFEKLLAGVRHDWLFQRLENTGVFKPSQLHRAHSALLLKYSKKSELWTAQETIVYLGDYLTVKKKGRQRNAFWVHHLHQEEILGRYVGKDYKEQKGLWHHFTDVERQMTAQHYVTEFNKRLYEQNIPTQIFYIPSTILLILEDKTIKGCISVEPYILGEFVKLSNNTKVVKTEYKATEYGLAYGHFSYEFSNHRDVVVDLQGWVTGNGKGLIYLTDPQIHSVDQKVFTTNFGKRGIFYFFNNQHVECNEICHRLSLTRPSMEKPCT
Protocol: Phosphatase such as the alkaline phosphatase may be responsible for H1b-ADP hydrolysis. We pre-mixed H1b-ADP with phosphatase inhibitor sodium orthovanadate (Na3VO4) before incubation with FBS. […] We hypothesized that the accumulation of hydrolysis product AMP can inhibit phosphatase activity.
A number of H1b-ADP derivative compounds were made as described herein and tested for biological activity as agonists of ALPK1 in vitro. In these experiments, serial dilutions of the compounds were added to the tissue culture media of HEK293 cells with (FIG. 27B, FIG. 28B, FIG. 29B) or without (FIG. 26, FIG. 27A, FIG. 28A, FIG. 29A) 10% FBS, as indicated in the figures. After 4 hours, the cell supernatant was collected and analyzed for IL8 concentration using IL8 ELISA (BD) as an indicator of ALPK1 activation.

Data set [4] deals with phosphatase activity in the serum. Put plainly: Incubation of H1b-ADP with FBS, product analysed by LC-MS. It counts as in vitro ADME, bovine. The text has this: (§1) FBS contains 110-352 μU/ml alkaline phosphatase.
For data set [5], the target named is T1, ALPK1. Description: Thermal shift assay (SYPRO Orange) for binding to ALPK1. As to conditions: ALPK1 7 uM; 1, 5, 25, 125 uM compound; H1b-ADP shift at 5, 25 and 125 uM. The text has this: The thermal shift assay is widely used to determine the binding of a molecule to a protein of interest. The assay is based on the increase in thermal energy required for denaturation of a protein where another molecule is bound to the protein. SYPRO Orange is a fluorescent compound used in the detection of thermal shift. SYPRO Orange binds to hydrophobic surfaces of the protein, and water strongly quenches its fluorescence. When the protein unfolds, the exposed hydrophobic surfaces bind the dye, resulting in an increase in fluorescence. When another molecule is bound to the protein, an increase in the temperature required for unfolding of the protein is observed.
This assay system was used to determine whether or not chemically synthesized HBP, HMP-1bP, and H1b-ADP directly bind to ALPK1. […] Only H1b-ADP induced a shift of more than 1 degree, at each of the three highest concentrations tested, 5 uM, 25 uM, and 125 uM.

The target in data set [6] is T1, ALPK1. Put plainly: Cell-free kinase assay of ALPK1 autophosphorylation (Western, anti-phospho-threonine). It counts as biochemical. As to conditions: 2 nM ALPK1 with ATP, 25° C., 1 h; H1b-ADP 10, 1, 0.2 nM; HBP and HMP-1bP 1, 10, 100 nM. On the procedure: ALPK1 activation results in its autophosphorylation. Accordingly, we next asked whether the binding of H1b-ADP to ALPK1 was sufficient to induce ALPK1 autophosphorylation. Phosphorylation assays were performed according to standard protocols. Briefly, ALPK1 was incubated (2 nM, 25° C., 1 h) in assay buffer (20 μl, 25 mM HEPES pH 7.5, 50 mM KCl, 0.1 mM EDTA, 0.1 mM EGTA, 2 mM DTT, 1.5 mM CaCl2, 10 mM MgCl2) with ATP and chemically synthesized HBP, HMP-1bP, or H1b-ADP followed by denaturing gel electrophoresis and Western analysis with an anti-phospho-threonine antibody (CST) to detect autophosphorylation of ALPK1. […] The range of concentrations of HBP and HMP-1bP used in this assay (1 nM, 10 nM, 100 nM) was 10-fold higher than that used for H1b-ADP.

The target in data set [7] is T1, ALPK1. Put plainly: In vitro kinase assay of ALPK1-dependent TIFA phosphorylation. Format: biochemical. As to conditions: FIG. 7, chemically-synthesized compounds. As for the experimental part: We performed an in vitro kinase assay with H1b-ADP and H1b-ADP-6L along with ALPK1 protein (2 nM), and TIFA protein (1.6 uM) in kinase buffer containing 50 uM ATP. TIFA phosphorylation was analyzed by denaturing gel electrophoresis followed by western blotting using an anti-phosphothreonine antibody. H1b-ADP or H1b-ADP-6L was added at 2 nM, 0.4 nM, 80 pM, 16 pM, and 3 pM.
To test this, we performed an in vitro kinase reaction for ALPK1-dependent TIFA phosphorylation in the presence of either HBP or HIdA purified from E. coli containing inactivated HIdE, or in the presence of HBP and HIdA purified from the same HIdE wild-type E. coli used in the previous experiments. Phosphorylated TIFA (three concentrations, 1%, 0.2% and […]) was detected as described above by denaturing gel electrophoresis followed by Western analysis.

Data set [8] deals with T1, ALPK1. Description: IL-8 and TNFα mRNA expression in HEK293 cells with control or ALPK1-directed siRNA (qPCR). Format: cell-based. The arrangement: silence ALPK1 expression in HEK293 cells; endogenous in cells; host or cells: HEK293. As to conditions: control vs ALPK1-directed siRNA, 4 hours, HBP 500, 100, 20 uM, HMP-1bP 500, 100 uM, H1b-ADP 100, 20, 4, 0.8 nM. On the procedure:
To test whether HBP, HMP-1bP, and H1b-ADP were able to induce cytokine expression in an ALPK1 dependent manner, we used an ALPK1-directed small interfering RNA (siRNA) to silence ALPK1 expression in HEK293 cells. Cells were plated (1×10^4 cells/well) into 96-well plates and transfected with either control siRNA or ALPK1-directed siRNA according to the manufacturer's protocols (Lipofectamine™ RNAiMax™, Invitrogen 13778075). Following 2 days of culture, either (1) HBP (500 uM, 100 uM, 20 uM, FIG. 2A-2B) (2) HMP-1bP (500 uM, 100 uM, FIG. 3A-3B), (3) H1b-ADP (100 nM, 20 nM, 4 nM, 0.8 nM, FIG. 4A-4B) was added to culture medium and cells were harvested 4 hours later.

Data set [9] deals with bovine alkaline phosphatase. Description: Incubation of H1b-ADP with bovine alkaline phosphatase. Format: biochemical. As to conditions: H1b-ADP incubated with bovine alkaline phosphatase, increasing amount of Na3VO4.
From the text: as §1

`CC(=O)OC[C@@H](OC(C)=O)[C@H]1O[C@@H](OP(=O)(O)OP(=O)(O)OC[C@H]2O[C@@H](n3cnc4c(N)ncnc43)[C@H](O)[C@@H]2F)[C@@H](OC(C)=O)[C@@H](OC(C)=O)[C@@H]1OC(C)=O` [Compound 1, (2S,3S,4S,5R,6R)-2-(((((((2R,3S,4S,5R)-5-(6-amino-9H-purin-9-yl)-3-fluoro-4-hydroxytetrahydrofuran-2-yl)methoxy)(hydroxy)phosphoryl)oxy)(hydroxy)phosphoryl)oxy)-6-((R)-1,2-diacetoxyethyl)tetrahydro-2H-pyran-3,4,5-triyl triacetate]: the tumor growth entry in [1] is reported as “reduced tumor growth”. In data set [2], the “dose that activates an inflammatory response in liver tissue” value came out at 2 nmol and the “dose that activates an inflammatory response in lung tissue” value stood at 200 nmol. In [3], the “IL8 secretion in HEK293 cells” value is given as “activate IL8 secretion”.
Regarding `Nc1ncnc2c1ncn2[C@@H]1O[C@H](COP(=O)(O)O)[C@@H](O)[C@H]1O` [AMP, reference compound], the “phosphatase activity in serum (H1b-ADP hydrolysis)” value in data set [4] (pre-treatment of H1b-ADP with AMP before serum incubation) is “inhibited phosphatase activity and the inhibition was AMP dose-dependent”. For the same molecule, in data set [3], the “restoration of H1b-ADP's activity in the cell based assay (IL8 secretion)” value is given as “could restore H1b-ADP's activity in the cell based assay”.
As to `O=P(O)(O)OC[C@@H](O)[C@H]1O[C@@H](OP(=O)(O)O)[C@@H](O)[C@@H](O)[C@@H]1O` [HBP, D-glycero-β-D-manno-heptose 1,7-bisphosphate], the “thermal shift of ALPK1” value in [5] was “Neither HBP nor HMP-1bP were able to induce a thermal shift”. Further, the “autophosphorylation of ALPK1” value in data set [6] is “not HBP or HMP-1bP induces ATP-dependent autophosphorylation”. Besides, in [7], the “phosphorylation of the ALPK1 substrate TIFA” value was “TIFA is phosphorylated only in the presence of H1b-ADP”. Besides, in [8], the “IL-8 mRNA expression” value is recorded as “increased in an ALPK1-dependent manner” and the “TNFα mRNA expression” value is recorded as “increased in an ALPK1-dependent manner”.
In the case of `Nc1ncnc2c1ncn2[C@@H]1O[C@H](COP(=O)(O)OP(=O)(O)O[C@@H]2OC([C@H](O)CO)[C@@H](O)C(O)C2O)C(F)C1O` (stereo in doubt) [Compound 2, Adenosine-3′-fluoro-5′-(D-glycero-β-D-mannoheptopyranosyl) diphosphate], the tumor growth entry in [1] is on record as “reduced tumor growth”. Moreover, the “IL8 secretion in HEK293 cells” value in [3] is “activate IL8 secretion”.
`[Na+].[Na+].[Na+].[O]=[V]([O-])([O-])[O-]` [Na3VO4, sodium orthovanadate]: the “H1b-ADP hydrolysis in FBS” value in data set [4] (H1b-ADP pre-mixed with 1 mM Na3VO4 before incubation with FBS) was “effectively inhibited H1b-ADP hydrolysis”. In addition, the “phosphatase activity on H1b-ADP” value in [9] was “the phosphatase activity was blocked by increasing amount of Na3VO4”. In data set [3], the “restoration of H1b-ADP's activity in the cell based assay (IL8 secretion)” value is on record as “could restore H1b-ADP's activity in the cell based assay”.
